The source of these data is PMC11428108 (Frontiers in Molecular Neuroscience, 2024).

By EC50 is commonly meant the concentration needed to bring the measured effect to its halfway point.

One experiment concerns people. The arrangement: method as in Knight et al., 2009. The following applies: placebo approximately 9%; ref Knight et al., 2009; cited from earlier work.
A further experiment relates to rats. Also noted: method as in Maurer et al., 2017. To be noted: ref Maurer et al., 2017; cited from earlier work.
Another experiment has as its system α4β2* nAChRs. The arrangement: method as in earlier work. To be noted: agonist-induced signaling; ref Wang et al., 2015; Grupe et al., 2013; Appiani et al., 2024; Jin et al., 2014; read-out: EC50 on α4β2* nAChR signaling; cited from earlier work.
Experiment [1] deals with human (α4)2(β2)2β2/α4 (α4β2*) nAChRs (Homo sapiens, UniProt P17787+P43681). Briefly: FLEXstation membrane potential assay in HEK cells stably expressing α4β2* nAChRs. It counts as cell-based. The following applies: nicotine 0.001–50 μM, ±SEM. The text has this: (§1) Human embryonic kidney (HEK) cell lines stably expressing human (α4)2(β2)2β2/α4 (α4β2*) nAChRs, (α4)2(β2)2α5 nAChRs, (α4)2(β2)2β3 nAChRs, (α3)2(β4)2α3/β4 (α3β4*) nAChRs, (α3)2(β2)2α3/β2 (α3β2*) nAChRs, (α3)2(β4)2α5 nAChRs, or (α3)2(β2)2α5 nAChRs were maintained as described previously ([Wang et al., 2015]; [Kuryatov et al., 2005]; [Caligiuri et al., 2022]). The FLEXstation bench top scanning fluorometer from Molecular Devices was used to assay nAChR function in these cells, according to published protocols ([Wang et al., 2015]; [Kuryatov et al., 2005]). The membrane potential kit (Molecular Devices) was used according to the manufacturer’s protocols. Serial dilutions of SR9883 were manually added to the assay plate 15 min prior to recording. […] Compound dilutions were prepared in V-shaped 96-well plates (Fisher Scientific Co.) and added to cell culture wells at a rate of 20 μL s^−1 during recording. Cells were incubated at 29°C for 6–20 h prior to assays to upregulate nAChRs ([Wang et al., 2015]; [Kuryatov et al., 2005]). Data points were averaged from 3 to 4 responses from separate wells. Potency and efficacy were calculated using the Hill equation as described previously ([Wang et al., 2015]).
(§2) Concentration-response curves of SR9883 actions in nAChR-expressing HEK cells and oocytes were fitted to the Hill equation using a nonlinear least squares curve fit method and efficacy and potency values were calculated as previously described ([Wang et al., 2015]). Plasma and brain levels of SR9983 after oral administration were compared using a two-tailed paired t test. […] For the ICSS threshold experiment, percentages of baseline reward threshold scores were calculated by expressing the absolute threshold scores as a percentage of the scores obtained during baseline. The baseline values were the mean thresholds on the three sessions prior to drug injections. Response latency data were analyzed in the same manner as the threshold data. […] Effects of SR9883 on responding for food pellets in rats was analyzed by a two-tailed paired t test. […] Significant main or interaction effects in ANOVAs were followed by Bonferroni or Newman–Keuls post-hoc tests as appropriate. All statistical analyses were performed using GraphPad Prism software with α set to 0.05.

In experiment [2] the target is T1, human (α4)2(β2)2α5 nAChRs (Homo sapiens, UniProt P17787+P30532+P43681).
T1 construct: expressed in transfected cells
The experiment is described as follows: FLEXstation membrane potential assay in HEK cells stably expressing (α4)2(β2)2α5 nAChRs. The following applies: nicotine 0.001–50 μM, ±SEM. It counts as cell-based.
From the text: as §1, §2

Each structure is given as a SMILES string. Where a name gives a salt, the structure may show the parent alone.

T1 sequence (P43681 29-627 limits assumed): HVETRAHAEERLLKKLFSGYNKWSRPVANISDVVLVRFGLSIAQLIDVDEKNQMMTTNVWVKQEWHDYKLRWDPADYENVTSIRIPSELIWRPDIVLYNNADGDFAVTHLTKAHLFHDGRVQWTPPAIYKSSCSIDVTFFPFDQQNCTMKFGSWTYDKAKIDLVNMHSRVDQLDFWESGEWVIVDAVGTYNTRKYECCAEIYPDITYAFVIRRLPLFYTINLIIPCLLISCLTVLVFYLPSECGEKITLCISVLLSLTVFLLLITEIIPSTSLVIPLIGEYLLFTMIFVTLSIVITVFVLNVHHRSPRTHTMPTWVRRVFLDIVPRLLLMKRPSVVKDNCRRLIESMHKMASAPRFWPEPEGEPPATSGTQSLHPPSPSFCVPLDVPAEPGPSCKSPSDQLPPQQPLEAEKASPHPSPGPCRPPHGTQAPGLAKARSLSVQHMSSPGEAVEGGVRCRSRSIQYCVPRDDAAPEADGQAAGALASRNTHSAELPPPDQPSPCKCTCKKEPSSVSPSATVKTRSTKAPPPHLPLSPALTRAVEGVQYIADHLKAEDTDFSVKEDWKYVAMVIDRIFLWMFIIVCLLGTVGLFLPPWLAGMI
T1 sequence (P17787 26-502): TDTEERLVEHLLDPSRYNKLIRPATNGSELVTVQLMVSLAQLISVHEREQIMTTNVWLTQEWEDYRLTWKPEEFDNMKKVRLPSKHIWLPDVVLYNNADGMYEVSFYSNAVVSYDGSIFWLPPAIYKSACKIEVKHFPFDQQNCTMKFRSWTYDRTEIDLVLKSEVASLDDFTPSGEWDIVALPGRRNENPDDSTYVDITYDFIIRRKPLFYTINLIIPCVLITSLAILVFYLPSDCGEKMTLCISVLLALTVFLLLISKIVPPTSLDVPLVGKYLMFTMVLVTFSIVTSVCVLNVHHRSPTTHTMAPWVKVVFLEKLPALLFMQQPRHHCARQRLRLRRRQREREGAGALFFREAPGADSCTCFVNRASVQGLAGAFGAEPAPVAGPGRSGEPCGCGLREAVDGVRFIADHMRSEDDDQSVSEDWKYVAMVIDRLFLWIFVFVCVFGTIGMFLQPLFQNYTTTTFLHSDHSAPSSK
T1 sequence (P30532 23-468): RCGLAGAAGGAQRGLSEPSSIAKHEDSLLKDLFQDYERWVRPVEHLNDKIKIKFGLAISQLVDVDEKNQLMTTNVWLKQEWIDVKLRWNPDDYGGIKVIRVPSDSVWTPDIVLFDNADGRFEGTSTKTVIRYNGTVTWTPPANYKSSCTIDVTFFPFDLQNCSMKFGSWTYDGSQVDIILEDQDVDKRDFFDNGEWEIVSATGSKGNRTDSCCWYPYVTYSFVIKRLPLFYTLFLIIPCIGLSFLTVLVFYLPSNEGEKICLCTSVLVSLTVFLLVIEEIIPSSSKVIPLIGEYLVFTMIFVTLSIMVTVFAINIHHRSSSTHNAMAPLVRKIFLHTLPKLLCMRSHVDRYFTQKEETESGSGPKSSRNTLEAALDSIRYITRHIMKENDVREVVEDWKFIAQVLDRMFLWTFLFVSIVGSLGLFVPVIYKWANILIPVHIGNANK
Sequence of human (α4)2(β2)2β2/α4 (α4β2*) nAChRs (P43681 27-627): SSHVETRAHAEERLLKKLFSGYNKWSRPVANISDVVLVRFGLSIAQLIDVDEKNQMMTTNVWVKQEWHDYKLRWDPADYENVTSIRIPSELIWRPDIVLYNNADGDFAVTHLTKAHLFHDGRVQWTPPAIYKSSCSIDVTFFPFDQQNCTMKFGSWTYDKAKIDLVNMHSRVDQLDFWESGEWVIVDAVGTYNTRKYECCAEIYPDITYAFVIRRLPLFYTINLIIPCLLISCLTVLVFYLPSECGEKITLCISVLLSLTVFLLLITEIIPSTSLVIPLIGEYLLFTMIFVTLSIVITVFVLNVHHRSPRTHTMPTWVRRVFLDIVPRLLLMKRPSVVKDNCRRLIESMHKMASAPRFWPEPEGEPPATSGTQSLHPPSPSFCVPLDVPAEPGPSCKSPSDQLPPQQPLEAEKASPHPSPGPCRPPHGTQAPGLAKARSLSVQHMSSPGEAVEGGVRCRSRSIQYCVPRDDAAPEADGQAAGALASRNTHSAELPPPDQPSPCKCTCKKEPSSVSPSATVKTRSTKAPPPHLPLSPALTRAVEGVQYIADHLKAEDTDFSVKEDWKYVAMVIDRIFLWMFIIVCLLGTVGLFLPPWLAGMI
Sequence of human (α4)2(β2)2β2/α4 (α4β2*) nAChRs (P17787 26-502): as the sequence (P17787 26-502) above

On to `CC(NC(C)(C)C)C(=O)c1cccc(Cl)c1` (stereo not drawn) [Zyban, bupropion], for which, in the experiment with people, the “People remaining abstinent after 1 year of a quit attempt” value was ~16%.

With `N#Cc1cccc(-c2nc(-c3cccnc3)no2)c1` [NS9283, 3-[3-(3-pyridyl)-1,2,4-oxadiazol-5-yl]benzonitrile], the “Intravenous nicotine self-administration behavior” value in the experiment with rats is recorded as “decrease”. Further, the EC50 with α4β2* nAChRs is ~1 µM.

Turning to `c1cnc2cc3c(cc2n1)[C@@H]1CNC[C@H]3C1` [Chantix, varenicline], in the experiment with people, the “People remaining abstinent after 1 year of a quit attempt” value was “approximately 23%”.

As for `CN1CCC[C@H]1c1cccnc1` [nicotine, (−)-Nicotine hydrogen tartrate salt, reference compound], the Efficacy in experiment [1] (+SR9883 (10 μM)) came to 87.20 ± 1.68%; in experiment [1] (−SR9883), 96.89 ± 2.82%; in experiment [2] (+SR9883 (10 μM)) it was 92.69 ± 2.19%; in experiment [2] (−SR9883) it was 100.49 ± 3.89%. Also, the nHill of nicotine in experiment [1] (+SR9883 (10 μM)) amounted to 1.0749 ± 0.0928; in experiment [1] (−SR9883), 0.8145 ± 0.0740; in experiment [2] (+SR9883 (10 μM)) it was 1.2934 ± 0.1439; in experiment [2] (−SR9883), 0.7395 ± 0.0767.
